Like-named read-outs stand apart in the source and are kept apart here.
Assays:
[1] = target: T1, zHDAC6-CD2 (Danio rerio, UniProt F8W4B7); experiment: LC-MS time course of DFMO hydrolysis by zHDAC6-CD2; format: biochemical, zebrafish; details: absence of competitor
T1 construct: 8xHis-MBP (TEV-cleavable) (N, cleaved yes); made in house; host or cells: E. coli
T1 sequence (F8W4B7 440-798): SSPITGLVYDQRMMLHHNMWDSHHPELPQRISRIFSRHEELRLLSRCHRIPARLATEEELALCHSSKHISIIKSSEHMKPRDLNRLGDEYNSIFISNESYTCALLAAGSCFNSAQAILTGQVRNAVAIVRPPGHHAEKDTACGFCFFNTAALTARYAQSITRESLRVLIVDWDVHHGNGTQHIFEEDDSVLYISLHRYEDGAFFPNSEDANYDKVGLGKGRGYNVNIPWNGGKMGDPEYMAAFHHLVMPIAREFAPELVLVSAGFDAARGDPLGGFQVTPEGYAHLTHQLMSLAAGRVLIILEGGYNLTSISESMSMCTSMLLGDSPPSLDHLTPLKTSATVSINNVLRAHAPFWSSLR
Procedure: In order to achieve a fast and sufficient conversion of DFMO to DFAcH before the addition of the competitor, and to minimize its effect on the first hydrolysis step, ITF3756 was added after a very short DFMO–enzyme pre-incubation (1 min). Subsequently, at each time point (Figure 4), an aliquot of the reaction mixture was mixed with acetonitrile to unfold the protein and quench the enzymatic activity. Each aliquot was analyzed by liquid LC-MS to determine the compound concentrations.
Experiments like those shown in panel A and C were carried out in the presence of 100 μM ITF3756, which was added after 1 min of ITF5924-enzyme (B) or ITF7209-enzyme (D) pre-incubation. All the experiments were carried out in triplicate. The lines simply join the average values of the experimental points. The incomplete recovery could be attributed to the relatively high enzyme concentration, possibly resulting in coprecipitation phenomena upon the addition of acetonitrile. […]
(§1) obtained in the absence of inhibitor. Such inhibition data were fitted in the GraphPad Prism software (version 10.2.2, La Jolla, CA, USA) using nonlinear regression analysis.
(§2) Eq. 1 P = v௦ ∙t + (vi − vs )[1 − exp(−kobs ∙t)] / kobs
(§3) In Eq. 1, P is the product concentration, expressed as fluorescence intensity, and t is the reaction time (in minutes) (7). For the determination of IC50 values, vo for fast-on inhibitors or vs for slow-on compounds were used to calculate the inhibition, as percentage with respect to the value obtained in the absence of inhibitor. Such inhibition data were fitted in GraphPad Prism software (version 10.2.2, La Jolla, CA, USA) using nonlinear regression analysis. […]
(§4) kobs values on inhibitor concentration was used to determine the mechanism of inhibition. “One-step” or a “two-step” (or “induced-fit) processes are the most common mechanisms of slow binding inhibition (Figure S2) and the resulting “kobs plots” should be linear for mechanism A and hyperbolic […]

[2] = target: T2, human HDAC6 (Homo sapiens, UniProt Q9UBN7); parameters: method as in PMID 36528061; details: included for comparison; ref [22]; read-out: HDACs IC50, HDAC6; cited from earlier work
T2 construct: purchased BPS Bioscience 50006
T2 sequence (Q9UBN7 1-1215): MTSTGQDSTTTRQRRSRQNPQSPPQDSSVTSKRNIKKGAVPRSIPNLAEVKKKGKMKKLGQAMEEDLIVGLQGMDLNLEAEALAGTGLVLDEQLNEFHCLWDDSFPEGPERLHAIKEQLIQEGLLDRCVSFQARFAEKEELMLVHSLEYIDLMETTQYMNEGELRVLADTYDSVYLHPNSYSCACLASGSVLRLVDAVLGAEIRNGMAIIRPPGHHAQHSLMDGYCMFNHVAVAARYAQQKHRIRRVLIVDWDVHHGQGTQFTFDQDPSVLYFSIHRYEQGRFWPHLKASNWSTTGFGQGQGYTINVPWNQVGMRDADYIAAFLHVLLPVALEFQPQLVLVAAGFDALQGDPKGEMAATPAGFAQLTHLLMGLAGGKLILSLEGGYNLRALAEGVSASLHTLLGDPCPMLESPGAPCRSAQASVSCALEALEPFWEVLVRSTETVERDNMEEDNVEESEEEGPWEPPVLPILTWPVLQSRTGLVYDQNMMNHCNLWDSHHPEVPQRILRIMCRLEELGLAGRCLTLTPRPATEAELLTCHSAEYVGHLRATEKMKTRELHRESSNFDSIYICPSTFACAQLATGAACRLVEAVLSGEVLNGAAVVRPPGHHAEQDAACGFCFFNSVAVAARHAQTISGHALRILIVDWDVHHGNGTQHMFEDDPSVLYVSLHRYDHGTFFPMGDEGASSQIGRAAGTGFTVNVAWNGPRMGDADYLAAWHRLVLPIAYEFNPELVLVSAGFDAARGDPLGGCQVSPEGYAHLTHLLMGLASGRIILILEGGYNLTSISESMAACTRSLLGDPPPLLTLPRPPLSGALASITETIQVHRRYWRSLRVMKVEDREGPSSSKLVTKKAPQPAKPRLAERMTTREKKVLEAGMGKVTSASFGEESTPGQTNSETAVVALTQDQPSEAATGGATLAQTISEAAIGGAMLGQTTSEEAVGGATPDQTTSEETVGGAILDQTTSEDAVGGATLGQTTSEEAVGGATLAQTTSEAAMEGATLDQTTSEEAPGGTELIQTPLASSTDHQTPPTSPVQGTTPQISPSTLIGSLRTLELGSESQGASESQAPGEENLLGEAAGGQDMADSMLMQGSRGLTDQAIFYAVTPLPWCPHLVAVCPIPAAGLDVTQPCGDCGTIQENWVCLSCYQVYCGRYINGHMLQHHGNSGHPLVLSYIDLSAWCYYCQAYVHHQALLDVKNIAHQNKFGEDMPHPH

[3] = target: T3, Human HDAC1 (Homo sapiens, UniProt Q13547); parameters: method as in PMID 36528061; details: included for comparison; ref [22]; read-out: HDACs IC50, HDAC1; cited from earlier work
T3 construct: purchased BPS Bioscience 50051

[4] = target: T4, second catalytic domain of zebrafish HDAC6 (zHDAC6-CD2) (Danio rerio, UniProt F8W4B7); experiment: Fluorometric HDAC activity assay (Fluor de Lys Green), zHDAC6-CD2; format: biochemical; details: for IC50: 25 °C, 3 µM Fluor de Lys Green, read-out: HDACs IC50, zHDAC6-CD2
T4 construct: 8xHis-MBP (TEV-cleavable) (N, cleaved yes); made in house; host or cells: E. coli
T4 sequence (F8W4B7 440-798): T1 sequence (F8W4B7 440-798)
Procedure: (§5) Optimized fluorometric enzymatic assays were used as previously reported (5, 6). Briefly, the time-course of the reaction was monitored at 25 °C in HDAC assay buffer [25 mM Tris/HCl, pH 8.0, 130 mM NaCl, 0.05% Tween-20, 10% Glycerol, 1 mg/mL bovine serum albumin (BSA), 0.5 mM tris(2-carboxyethyl)phosphine (TCEP) and 1% DMSO]. Human HDAC1 (Catalog 50051, BPS Bioscience, San Diego, CA, USA), human HDAC6 (Catalog 50006, BPS Bioscience, San Diego, CA, USA) and the second catalytic domain of zebrafish HDAC6 (zHDAC6-CD2) were used at catalytic concentrations of 710 pM, 62.5-125 pM and 0.12 nM, respectively. The Fluor de Lys Green substrate (Enzo Life Sciences, Farmingdale, New York, USA) was included at a concentration close to the Km value, 3 µM for HDAC6 forms and 25 µM for HDAC1. For fast binding inhibitors, the initial velocity (vo) was calculated as (∆F/min) from the slope of the straight line fitting the data points. In the case […]
(§6) velocity (vi), the steady-state velocity at long reaction times (vs), and the apparent first-order rate constant (kobs). In Eq 1, P is the product concentration, expressed as fluorescence intensity and t is the reaction time (in minutes) (7). All progress curves are generated by using GraphPad Prism software (version 10.2.2, La Jolla, CA, USA). For IC50 determination, vo for fast-on inhibitors or vs for slow-on compounds were used to calculate the inhibition, as percentage with respect to the value
(1 picture or pasted object on this page, not shown here) […]
as §1, §2, §3, §4
to equation 2, assuming the validity of mechanism B, where Ki is the dissociation constant of the initial EI complex, whereas k2 and k-2 are the rate constants describing the formation of the tight EI* complex. IC50 reflects the dissociation constant of the EI* complex (Ki*). […]
Samples were kept frozen at -80 °C until the LC-HRMS analysis. The experiment was performed in […]
(ITF6715, ITF7738) and hydrazide (ITF6712, ITF7739) derivatives in the samples was performed with respect to calibration curves obtained with varying concentrations of each compound. Raw data were then imported into GraphPad Prism (version 10.2.2, La Jolla, CA, USA) to generate Figure 4.
The LC-HRMS analysis was carried out using a Vanquish Flex UHPLC (Thermo Fisher Scientific, Waltham, Massachusetts, USA) and a high-resolution mass spectrometer Orbitrap QExactive Focus (Thermo Fisher Scientific, Waltham, Massachusetts, USA), equipped with a Heated Electrospray Ionization, operated in positive mode. A Full Scan analysis was set in the m/z range 50-500 amu. A XSelect HSS T3 50x2.1 mm, 2.5 µm chromatographic column (Waters, Milford, Massachusetts, USA) was used. Mobile phase A consisted of 0.1% formic acid in water and mobile phase B in 0.1% formic acid in acetonitrile. The flow rate was set to 0.5 mL/min, with a gradient program from 3 to 20% B in 3 minutes. The software Chromeleon CDS (version 7.3.2, Thermo Fisher Scientific, Waltham, Massachusetts, USA) was used for acquisition, processing, and signal integration. […]

[5] = target: T2, human HDAC6; experiment: Fluorometric HDAC activity assay (Fluor de Lys Green), human full-length HDAC6; format: biochemical; details: for IC50: human full-length HDAC6, 25 °C, 3 µM Fluor de Lys Green, read-out: HDACs IC50, HDAC6
Procedure: as §5
as §6, with “value […]” for “value”
as §1, §2, §3, §4
to equation 2, assuming the validity of mechanism B, where Ki is the dissociation constant of the […]

[6] = target: T4, second catalytic domain of zebrafish HDAC6 (zHDAC6-CD2); parameters: method as in PMID 36528061; details: included for comparison; ref [22]; read-out: HDACs IC50, zHDAC6-CD2; cited from earlier work
[7] = target: T3, Human HDAC1; experiment: Fluorometric HDAC activity assay (Fluor de Lys Green), human HDAC1; format: biochemical; details: 25 °C, 25 µM Fluor de Lys Green; read-out: HDACs IC50, HDAC1
Procedure: as §5
velocity (vi), the steady-state velocity at long reaction times (vs), and the apparent first-order rate constant (kobs). In Eq 1, P is the product concentration, expressed as fluorescence intensity and t is the reaction time (in minutes) (7). […]
In Eq. 1, P is the product concentration, expressed as fluorescence intensity, and t is the reaction time (in minutes) (7). […]

[8] = 5 µM DFMO, 5 µM zHDAC6-CD2, 25 °C

T3 sequence (Q13547 whole entry): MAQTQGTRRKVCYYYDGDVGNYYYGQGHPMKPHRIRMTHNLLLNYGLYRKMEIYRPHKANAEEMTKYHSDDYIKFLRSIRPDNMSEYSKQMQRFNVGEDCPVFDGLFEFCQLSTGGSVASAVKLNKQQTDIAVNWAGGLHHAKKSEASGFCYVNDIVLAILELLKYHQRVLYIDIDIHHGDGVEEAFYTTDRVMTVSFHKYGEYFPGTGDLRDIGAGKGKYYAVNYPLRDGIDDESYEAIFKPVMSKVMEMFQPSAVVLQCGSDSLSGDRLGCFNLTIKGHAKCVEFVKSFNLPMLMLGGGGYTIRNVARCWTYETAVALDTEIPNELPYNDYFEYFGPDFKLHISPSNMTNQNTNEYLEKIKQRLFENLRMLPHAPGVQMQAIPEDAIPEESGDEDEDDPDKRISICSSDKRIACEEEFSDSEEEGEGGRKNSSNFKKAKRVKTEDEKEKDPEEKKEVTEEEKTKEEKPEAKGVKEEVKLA

Row | IC50 [4] [nM] | IC50 [5] [nM] | IC50 [7] [nM] | Compound | IC50 [2] [nM] | IC50 [3] [nM] | IC50 [6] [nM] | other results
1 |  |  |  | NNC(=O)c1ccc(Cn2cc(-c3ccc(NC4=NCCN4)cc3)nn2)cc1 [ITF6712] | 330 | > 100000 |  | Amount of hydrazide product detectable ([1]; hydrolysis of 5 µM ITF5924 by 5 µM zHDAC6-CD2, 25 °C): 13%
2 |  |  |  | FC(F)c1nnc(-c2ccc(Cn3cc(-c4ccc(NC5=NCCN5)cc4)nn3)cc2)o1 [ITF5924] | 7.7 ± 0.3 | > 100000 | 7.8 ± 0.4 | Time after which DFMO substantially disappeared [1, 8]: 10 min
3 |  |  |  | O=C(NNC(=O)C(F)F)c1ccc(Cn2cc(-c3ccc(NC4=NCCN4)cc3)nn2)cc1 [ITF6715] | 1600 | > 100000 | 2300 | 
4 | 1000 | 5100 | > 100000 | CC(C)(C)c1cn(Cc2ccc(C(=O)NN)s2)nn1 [ITF7739] |  |  |  | 
5 | 72000 | > 100000 | > 100000 | CC(C)(C)c1cn(Cc2ccc(C(=O)NNC(=O)C(F)F)s2)nn1 [ITF7738] |  |  |  | 

Row | Compound | IC50 [4] [nM] | IC50 [5] [nM] | IC50 [7] [nM] | IC50 [2] [nM] | IC50 [3] [nM] | IC50 [6] [nM] | other results
6 | CC(C)(C)c1cn(Cc2ccc(-c3nnc(C(F)F)o3)s2)nn1 [ITF7209] | 6.7 ± 0.4 |  |  |  |  |  | Mode of inhibition ([4]; zHDAC6-CD2, progress curves): slow binding inhibitor; k2 (rate constant, formation of the tight EI* complex) ([4]; zHDAC6-CD2, fit of kobs to Eq. 2): 0.86 ± 0.02 min⁻¹; Ki ([4]; zHDAC6-CD2, fit of kobs to Eq. 2, induced-fit model, read-out: Ki (dissociation constant of the initial EI complex)): 980 ± 40 nM; k2 (rate constant, formation of the tight EI* complex) ([5]; human HDAC6, fit of kobs to Eq. 2): 0.52 ± 0.01 min⁻¹; Mode of inhibition ([5]; human full-length HDAC6, progress curves): slow binding inhibitor; Rate of DFMO consumption compared to ITF5924 [1, 8]: slower rate of DFMO consumption

Reference: paper PMC11172862, “Mechanistic and Structural Insights on Difluoromethyl-1,3,4-oxadiazole Inhibitors of HDAC6” (International Journal of Molecular Sciences, 2024)
